Test results: EP1757588A1, “Polymorph of N-Piperidinyl-5-(4-chlorophenyl)-1-(2,4-dichlorophenyl)-4,5-dihydro-1H-pyrazole-3-carboxamide and its use as a cannabinoid receptor modulator” (LABORATORIOS DEL DR. ESTEVE, S.A., priority 2005, dated 2007)

Tests used:
Herg channel = Herg channel (Homo sapiens, UniProt Q12809); assay: Herg channel affinity; assay type: binding; conditions: general statement, no method or data given
Male NMRI mice = assay: Mouse tetrad model (in-vivo bioassay for cannabinoid activity: hot plate, hypothermia, catalepsy, sedation); conditions: 5 mg/kg i.v.
Source text: II. In-vivo bioassay system for determination of cannabinoid activity
Substances with affinity for cannabinoid receptors are known to produce a wide range of pharmacological effects. It is also known that intravenous administration of a substance with affinity for cannabinoid receptors in mice produces analgesia , hypothermia, sedation and catalepsy. Individually, none of these effects can be considered as proof that a tested substance has affinity for cannabinoid-receptors, since all of these effects are common for various classes of centrally active agents. However, substances, which show all of these effects, i.e. substances that are active in this so-called tetrad model are considered to have affinity for the cannabinoid receptors. It has further been shown that cannabinoid receptor antagonists are higly effective in blocking the effects of a cannabinoid agonist in the mouse tetrad model.
The tetrad model is described, for example, in the publication of A. C. Howlett et al, International Union of Pharmacology XXVII. Classification of Cannabinoid Receptors, Pharmacol Rev 54, 161-202 , 2002 and David R. Compton et al., "In-vivo Characterization of a Specific Cannabinoid Receptor Antagonist (SR141716A) :Inhibition of Tetrahydrocannbinol- induced Responses and Apparent Agonist Activity", J. Pharmacol. Exp. Ther. 277 , 2, 586-594, 1996. […]
Before testing in the behavioral procedures given below, mice are acclimatized to the experimental setting. Pre-Treatment control values are determined for analgesia hot plate latency (in seconds), rectal temperature, sedation and catalepsy.
In order to determine the agonistic activty of the substance to be tested, the mice are injected intravenously with the substance to be tested or the vehicle alone. 15 minutes after injection, latency in hot plate analgesia is measured.
Rectal temperature, sedation and catalepsy are measured 20 minutes after injection.
In order to determine the antagonistic activity the identical procedure is used as for the determination of the agonistic effects, but with the difference that the substance to be evaluated for its antagonistic activity is injectected 5 minutes before the intravenous injection of 1.25 mg/kg Win-55,212 a known cannabinoid-receptor agonist.
The hot plate analgesia is determined according to the method described in Woolfe D. et al. "The evaluation of analgesic action of pethidine hydrochloride (Demerol)", J. Pharmacol. Exp. Ther. 80, 300-307,1944.
The mice are placed on a hot plate (Harvard Analgesimeter) at 55 ± 0.5 °C until they show a painful sensation by licking their paws or jumping and the time for these sensations to occur is recorded. This reading is considered the basal value (B). […]
The degree of analgesia is calculated from the formula : […]

Herg channel, sequence (Q12809 whole entry): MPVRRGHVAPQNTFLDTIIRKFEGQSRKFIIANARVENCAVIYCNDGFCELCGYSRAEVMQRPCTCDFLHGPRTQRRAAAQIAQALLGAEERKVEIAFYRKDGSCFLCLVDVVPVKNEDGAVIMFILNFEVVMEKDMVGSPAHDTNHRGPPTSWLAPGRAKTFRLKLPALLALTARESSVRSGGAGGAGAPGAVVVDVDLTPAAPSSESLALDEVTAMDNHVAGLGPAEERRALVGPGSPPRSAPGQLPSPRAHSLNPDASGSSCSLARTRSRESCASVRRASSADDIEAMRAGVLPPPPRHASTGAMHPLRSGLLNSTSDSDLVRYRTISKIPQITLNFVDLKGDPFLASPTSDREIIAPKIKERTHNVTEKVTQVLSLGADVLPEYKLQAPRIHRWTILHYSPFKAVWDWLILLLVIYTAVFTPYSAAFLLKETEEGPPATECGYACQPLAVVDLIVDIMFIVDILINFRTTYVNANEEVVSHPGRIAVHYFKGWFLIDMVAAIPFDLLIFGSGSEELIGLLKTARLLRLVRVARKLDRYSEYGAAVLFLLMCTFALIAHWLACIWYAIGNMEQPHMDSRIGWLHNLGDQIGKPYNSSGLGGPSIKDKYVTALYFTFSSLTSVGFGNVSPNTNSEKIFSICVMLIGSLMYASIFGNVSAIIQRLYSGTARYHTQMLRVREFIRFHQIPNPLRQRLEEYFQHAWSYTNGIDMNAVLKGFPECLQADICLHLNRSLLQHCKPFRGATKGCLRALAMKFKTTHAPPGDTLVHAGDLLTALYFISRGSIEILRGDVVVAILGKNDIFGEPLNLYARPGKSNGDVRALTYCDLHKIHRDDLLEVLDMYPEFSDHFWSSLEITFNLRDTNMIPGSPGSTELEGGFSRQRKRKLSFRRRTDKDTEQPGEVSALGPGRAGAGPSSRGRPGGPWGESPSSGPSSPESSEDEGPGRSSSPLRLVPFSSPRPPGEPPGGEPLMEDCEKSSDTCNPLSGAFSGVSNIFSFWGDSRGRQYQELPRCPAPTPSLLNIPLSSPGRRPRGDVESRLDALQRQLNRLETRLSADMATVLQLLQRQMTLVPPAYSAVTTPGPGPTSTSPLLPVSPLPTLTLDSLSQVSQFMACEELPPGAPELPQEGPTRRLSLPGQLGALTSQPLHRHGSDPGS

Structure (SMILES): O=C(NN1CCCCC1)C1=NN(c2ccc(Cl)cc2Cl)C(c2ccc(Cl)cc2)C1 (stereo not drawn) [β-Polymorph, β-Polymorph of N-piperidinyl-5-(4-chlorophenyl)-1-(2,4-dichlorophenyl)-4,5-dihydro-1H-pyrazole-3-carboxamide]
- Herg channel affinity (Herg channel): relatively weak

Structure (SMILES): O=C(NN1CCCCC1)C1=NN(c2ccc(Cl)cc2Cl)C(c2ccc(Cl)cc2)C1 (centres unmarked) [Example 1, N-piperidinyl-5-(4-chlorophenyl)-1-(2,4-dichlorophenyl)-4,5-dihydro-1H-pyrazole-3-carboxamide]
- Agonistic effect A: Hot-Plate test (Male NMRI mice): 0
- Agonistic effect B: Hypothermia (Male NMRI mice): 0
- Agonistic effect C: Catalepsy (Male NMRI mice): 0
- Agonistic effect D: Sedation (Male NMRI mice): 0
